Experimental data reported in ChEMBL document CHEMBL3046894, “Synthesis and Herbicidal Activity of Pyrimidinyl Salicylic and Thiosalicylic Acids” (J Pestic Sci, 1996).
Activity calls are given as the source filed them. No cut-off for these calls is given here.

Key:
Ipomoea lacunosa [1] = experiment: Post-emergence herbicidal activity against Ipomoea lacunosa assessed as mortality at 6.3 g a.i/10 a applied 11 days after germination as foliar spray; assay type: functional; conditions: 264 h
Abutilon theophrasti [2] = experiment: Post-emergence herbicidal activity against Abutilon theophrasti (velvetleaf) assessed as mortality at 1.6 g a.i/10 a applied 11 days after germination as foliar spray; assay type: functional; conditions: 264 h
Abutilon theophrasti [3] = experiment: Post-emergence herbicidal activity against Abutilon theophrasti (velvetleaf) assessed as mortality at 6.3 g a.i/10 a applied 11 days after germination as foliar spray; assay type: functional; conditions: 264 h
Gossypium hirsutum [4] = experiment: Post-emergence phytotoxicity against Gossypium hirsutum (cotton) assessed as mortality at 1.6 g a.i/10 a applied 11 days after germination as foliar spray; assay type: organism-based; conditions: in vivo, other, 264 h
[5] = (§1) Post-emergence phytotoxicity against Gossypium hirsutum (cotton) assessed as mortality at 6.3 g a.i/10 a applied 11 days after germination as foliar spray; assay type: organism-based; conditions: in vivo, 6.3 g a.i/10 a
Glycine max [6] = experiment: Post-emergence phytotoxicity against Glycine max (soybean) assessed as mortality at 6.3 g a.i/10 a applied 11 days after germination as foliar spray; assay type: organism-based; conditions: in vivo, other, 264 h
Glycine max [7] = experiment: Post-emergence phytotoxicity against Glycine max (soybean) assessed as mortality at 1.6 g a.i/10 a applied 11 days after germination as foliar spray; assay type: organism-based; conditions: in vivo, other, 264 h
Zea mays [8] = experiment: Post-emergence phytotoxicity against Zea mays (maize) assessed as mortality at 1.6 g a.i/10 a applied 11 days after germination as foliar spray; assay type: organism-based; conditions: in vivo, other, 264 h
Echinochloa crus-galli [9] = experiment: Post-emergence herbicidal activity against Echinochloa crus-galli (barnyard grass) assessed as mortality at 1.6 g a.i/10 a applied 11 days after germination as foliar spray; assay type: functional; conditions: 264 h
Echinochloa crus-galli [10] = experiment: Post-emergence herbicidal activity against Echinochloa crus-galli (barnyard grass) assessed as mortality at 6.3 g a.i/10 a applied 11 days after germination as foliar spray; assay type: functional; conditions: 264 h
Gossypium hirsutum [11] = experiment: Post-emergence phytotoxicity against Gossypium hirsutum (cotton) assessed as mortality per 10 acre; assay type: organism-based; conditions: in vivo
Ipomoea lacunosa [12] = experiment: Post-emergence herbicidal activity against Ipomoea lacunosa assessed as mortality at 1.6 g a.i/10 a applied 11 days after germination as foliar spray; assay type: functional; conditions: 264 h
Gossypium hirsutum [13] = experiment: Pre-emergence phytotoxicity against Gossypium hirsutum (cotton) assessed as mortality at 6.3 g a.i/10 a; assay type: organism-based; conditions: in vivo, other
Gossypium hirsutum [14] = experiment: Pre-emergence phytotoxicity against Gossypium hirsutum (cotton) assessed as mortality at 1.6 g a.i/10 a; assay type: organism-based; conditions: in vivo, other
Glycine max [15] = experiment: Pre-emergence phytotoxicity against Glycine max (soybean) assessed as mortality at 1.6 g a.i/10 a; assay type: organism-based; conditions: in vivo, other
Glycine max [16] = experiment: Pre-emergence phytotoxicity against Glycine max (soybean) assessed as mortality at 6.3 g a.i/10 a; assay type: organism-based; conditions: in vivo, other
Zea mays [17] = experiment: Pre-emergence phytotoxicity against Zea mays (maize) assessed as mortality at 1.6 g a.i/10 a; assay type: organism-based; conditions: in vivo, other
Zea mays [18] = experiment: Pre-emergence phytotoxicity against Zea mays (maize) assessed as mortality at 6.3 g a.i/10 a; assay type: organism-based; conditions: in vivo, other
Gossypium hirsutum [19] = experiment: as §1; assay type: organism-based; conditions: in vivo, other, 264 h
Xanthium strumarium [20] = experiment: Post-emergence herbicidal activity against Xanthium strumarium (cocklebur) assessed as mortality at 1.6 g a.i/10 a applied 11 days after germination as foliar spray; assay type: functional; conditions: 264 h
Cyperus iria [21] = experiment: Pre-emergence herbicidal activity against Cyperus iria assessed as growth inhibition at 25 g a.i/10 a; assay type: functional, organism-based
Chenopodium album [22] = experiment: Pre-emergence herbicidal activity against Chenopodium album assessed as growth inhibition at 25 g a.i/10 a; assay type: functional, organism-based
Amaranthus retroflexus [23] = experiment: Pre-emergence herbicidal activity against Amaranthus retroflexus assessed as growth inhibition at 25 g a.i/10 a; assay type: functional, organism-based
Persicaria nodosa [24] = experiment: Pre-emergence herbicidal activity against Persicaria nodosa assessed as growth inhibition at 25 g a.i/10 a; assay type: functional, organism-based
Digitaria sanguinalis [25] = experiment: Pre-emergence herbicidal activity against Digitaria sanguinalis (hairy crabgrass) assessed as growth inhibition at 25 g a.i/10 a; assay type: functional, organism-based
Echinochloa crus-galli [26] = experiment: Pre-emergence herbicidal activity against Echinochloa crus-galli (barnyard grass) assessed as growth inhibition at 25 g a.i/10 a; assay type: functional, organism-based
Cyperus iria [27] = experiment: Post-emergence herbicidal activity against Cyperus iria assessed as growth inhibition at 25 g a.i/10 a applied 11 days after germination as foliar spray; assay type: functional, organism-based
Chenopodium album [28] = experiment: Post-emergence herbicidal activity against Chenopodium album assessed as growth inhibition at 25 g a.i/10 a applied 11 days after germination as foliar spray; assay type: functional, organism-based
Amaranthus retroflexus [29] = experiment: Post-emergence herbicidal activity against Amaranthus retroflexus assessed as growth inhibition at 25 g a.i/10 a applied 11 days after germination as foliar spray; assay type: functional, organism-based
Persicaria nodosa [30] = experiment: Post-emergence herbicidal activity against Persicaria nodosa assessed as growth inhibition at 25 g a.i/10 a applied 11 days after germination as foliar spray; assay type: functional, organism-based
Digitaria sanguinalis [31] = experiment: Post-emergence herbicidal activity against Digitaria sanguinalis (hairy crabgrass) assessed as growth inhibition at 25 g a.i/10 a applied 11 days after germination as foliar spray; assay type: functional, organism-based
Echinochloa crus-galli [32] = experiment: Post-emergence herbicidal activity against Echinochloa crus-galli (barnyard grass) assessed as growth inhibition at 25 g a.i/10 a applied 11 days after germination as foliar spray; assay type: functional, organism-based
Ipomoea lacunosa [33] = experiment: Pre-emergence herbicidal activity against Ipomoea lacunosa assessed as mortality per 10 acre; assay type: functional
Persicaria nodosa [34] = experiment: Pre-emergence herbicidal activity against Persicaria nodosa assessed as mortality per 10 acre; assay type: functional
Amaranthus retroflexus [35] = experiment: Pre-emergence herbicidal activity against Amaranthus retroflexus assessed as mortality per 10 acre; assay type: functional
Echinochloa crus-galli [36] = experiment: Pre-emergence herbicidal activity against Echinochloa crus-galli (barnyard grass) assessed as mortality per 10 acre; assay type: functional
Gossypium hirsutum [37] = experiment: Pre-emergence phytotoxicity against Gossypium hirsutum (cotton) assessed as mortality per 10 acre; assay type: organism-based; conditions: in vivo
Xanthium strumarium [38] = experiment: Post-emergence herbicidal activity against Xanthium strumarium (cocklebur) assessed as mortality per 10 acre; assay type: functional
Ipomoea lacunosa [39] = experiment: Post-emergence herbicidal activity against Ipomoea lacunosa assessed as mortality per 10 acre; assay type: functional
Persicaria nodosa [40] = experiment: Post-emergence herbicidal activity against Persicaria nodosa assessed as mortality per 10 acre; assay type: functional
Amaranthus retroflexus [41] = experiment: Post-emergence herbicidal activity against Amaranthus retroflexus assessed as mortality per 10 acre; assay type: functional
Echinochloa crus-galli [42] = experiment: Post-emergence herbicidal activity against Echinochloa crus-galli (barnyard grass) assessed as mortality per 10 acre; assay type: functional
Xanthium strumarium [43] = experiment: Pre-emergence herbicidal activity against Xanthium strumarium (cocklebur) assessed as mortality at 1.6 g a.i/10 a; assay type: functional; conditions: Xanthium strumarium, pre-emergence
Xanthium strumarium [44] = experiment: Pre-emergence herbicidal activity against Xanthium strumarium (cocklebur) assessed as mortality at 6.3 g a.i/10 a; assay type: functional; conditions: Xanthium strumarium, pre-emergence
Ipomoea lacunosa [45] = experiment: Pre-emergence herbicidal activity against Ipomoea lacunosa assessed as mortality at 1.6 g a.i/10 a; assay type: functional; conditions: Ipomoea lacunosa, pre-emergence
Ipomoea lacunosa [46] = experiment: Pre-emergence herbicidal activity against Ipomoea lacunosa assessed as mortality at 6.3 g a.i/10 a; assay type: functional; conditions: Ipomoea lacunosa, pre-emergence
Xanthium strumarium [47] = experiment: Pre-emergence herbicidal activity against Xanthium strumarium (cocklebur) assessed as mortality per 10 acre; assay type: functional
Abutilon theophrasti [48] = experiment: Pre-emergence herbicidal activity against Abutilon theophrasti (velvetleaf) assessed as mortality at 1.6 g a.i/10 a; assay type: functional; conditions: Abutilon theophrasti, pre-emergence
Abutilon theophrasti [49] = experiment: Pre-emergence herbicidal activity against Abutilon theophrasti (velvetleaf) assessed as mortality at 6.3 g a.i/10 a; assay type: functional; conditions: Abutilon theophrasti, pre-emergence

In the case of `COc1cc(OC)nc(Sc2cccc(SC)c2C(=O)O)n1`, the mortality at 63 g/ha (Ipomoea lacunosa [1]) was > 90%, the mortality at 16 g/ha (Abutilon theophrasti [2]) was > 90% and the mortality at 63 g/ha (Abutilon theophrasti [3]) was > 90%. The Activity (Gossypium hirsutum [4]) was “Non-toxic”, the mortality at 264 h [5] was > 90% and the Activity (Glycine max [6]) was “Toxic”. The Activity (Glycine max [7]) was “Toxic”, the Activity (Zea mays [8]) was “Toxic” and the mortality at 16 g/ha (Echinochloa crus-galli [9]) was < 5%. For the same compound, the mortality at 63 g/ha (Echinochloa crus-galli [10]) was < 5%.
With `COc1cc(OC)nc(Oc2ccccc2C(=O)O)n1` the ED20 (Gossypium hirsutum [11]) was 12 gAi, the mortality at 16 g/ha (Ipomoea lacunosa [12]) was < 5% and the mortality at 16 g/ha (Abutilon theophrasti [2]) was < 5%. The Activity (Gossypium hirsutum [13]) was “Non-toxic”, the Activity (Gossypium hirsutum [14]) was “Non-toxic” and the Activity (Glycine max [15]) was “Non-toxic”. For the same compound, the Activity (Glycine max [16]) was “Non-toxic”, the Activity (Zea mays [17]) was “Non-toxic” and the Activity (Zea mays [18]) was “Toxic”. The Activity (Gossypium hirsutum [4]) was “Toxic”, the Activity (Gossypium hirsutum [19]) was “Toxic” and the Activity (Glycine max [6]) was “Toxic”. The Activity (Glycine max [7]) was “Toxic”, the Activity (Zea mays [8]) was “Toxic” and the mortality at 16 g/ha (Xanthium strumarium [20]) was < 5%. For the same compound, the “growth inhibition (GI)” value (Cyperus iria [21]) was “Active”, the “growth inhibition (GI)” value (Chenopodium album [22]) was “Active” and the “growth inhibition (GI)” value (Amaranthus retroflexus [23]) was “Active”. For the same compound, the “growth inhibition (GI)” value (Persicaria nodosa [24]) was “inactive”, the “growth inhibition (GI)” value (Digitaria sanguinalis [25]) was “Active” and the “growth inhibition (GI)” value (Echinochloa crus-galli [26]) was “Active”. For the same compound, the “growth inhibition (GI)” value (Cyperus iria [27]) was “Active”, the “growth inhibition (GI)” value (Chenopodium album [28]) was “Active” and the “growth inhibition (GI)” value (Amaranthus retroflexus [29]) was “Active”. The “growth inhibition (GI)” value (Persicaria nodosa [30]) was “Active”, the “growth inhibition (GI)” value (Digitaria sanguinalis [31]) was “Active” and the “growth inhibition (GI)” value (Echinochloa crus-galli [32]) was “Active”. For the same compound, the ED90 (Ipomoea lacunosa [33]) was >100 gAi, the ED90 (Persicaria nodosa [34]) was 12 gAi and the ED90 (Amaranthus retroflexus [35]) was “Active”. The ED90 (Echinochloa crus-galli [36]) was 12 gAi, the ED20 (Gossypium hirsutum [37]) was 12 gAi and the ED90 (Xanthium strumarium [38]) was >100 gAi. The ED90 (Ipomoea lacunosa [39]) was >100 gAi, the ED90 (Persicaria nodosa [40]) was 12 gAi and the ED90 (Amaranthus retroflexus [41]) was 12 gAi. For the same compound, the ED90 (Echinochloa crus-galli [42]) was 50 gAi, the mortality at 16 g/ha (Xanthium strumarium [43]) was < 5% and the mortality at 63 g/ha (Xanthium strumarium [44]) was < 5%. The mortality at 16 g/ha (Ipomoea lacunosa [45]) was < 5%, the mortality at 63 g/ha (Ipomoea lacunosa [46]) was < 5% and the ED90 (Xanthium strumarium [47]) was >100 gAi. The mortality at 16 g/ha (Abutilon theophrasti [48]) was < 5% and the mortality at 63 g/ha (Abutilon theophrasti [49]) was < 5%.
